Experimental data reported in PubChem BioAssay (NCI).
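Five concentrations, 48 hours, 96-well plates. TGI is the concentration that stops growth completely.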

Assays:
Experiment in all cases: growth of human tumour cells (NCI), 48 h
[1] = test system: SK-MEL-28 melanoma
[2] = test system: U251 CNS
[3] = test system: COLO 205 colon
[4] = test system: K-562 leukemia
[5] = test system: SF-268 CNS
[6] = test system: CAKI-1 renal
[7] = test system: NCI-H23 lung
[8] = test system: ACHN renal
[9] = test system: MDA-MB-435
[10] = test system: SNB-19 CNS
[11] = test system: TK-10 renal
[12] = test system: MCF7 breast
[13] = test system: M14 melanoma
[14] = test system: HCT-15 colon
[15] = test system: SK-OV-3 ovarian
[16] = test system: NCI-H460 lung
[17] = test system: T-47D breast
[18] = test system: MOLT-4 leukemia
[19] = test system: SK-MEL-5 melanoma
[20] = test system: SR leukemia
[21] = test system: MALME-3M melanoma
[22] = test system: OVCAR-3 ovarian
[23] = test system: DU-145 prostate
[24] = test system: HT29 colon
[25] = test system: SK-MEL-2 melanoma
[26] = test system: OVCAR-5 ovarian
[27] = test system: SN12C renal
[28] = test system: MDA-N
[29] = test system: NCI-H226 lung
[30] = test system: EKVX NSCLC
[31] = test system: KM12 colon
[32] = test system: OVCAR-8 ovarian
[33] = test system: IGROV1 ovarian
[34] = test system: BT-549 breast
[35] = test system: HOP-92 NSCLC
[36] = test system: PC-3 prostate
[37] = test system: 786-0 renal
[38] = test system: A549 NSCLC
[39] = test system: UACC-62 melanoma
[40] = test system: RPMI-8226 leukemia
[41] = test system: SNB-75 CNS
[42] = test system: OVCAR-4 ovarian
[43] = test system: NCI-H522 lung
[44] = test system: UO-31 renal
[45] = test system: LOX IMVI melanoma
[46] = test system: CCRF-CEM leukemia
[47] = test system: HOP-62 NSCLC
[48] = test system: SF-295 CNS
[49] = test system: HL-60(TB) leukemia
[50] = test system: NCI/ADR-RES ovarian
[51] = test system: SW-620 colon
[52] = test system: HS 578T breast
[53] = test system: UACC-257 melanoma
[54] = test system: HCT-116 colon
[55] = test system: MDA-MB-231 breast
[56] = test system: RXF 393 renal
[57] = test system: HCC-2998 colon
[58] = test system: SF-539 CNS
[59] = test system: A498 renal

Q: What does the source list for `CC1(C)CC2C(/C1=N/O)C1(C)CCCC2(C)C1O` (stereo not drawn)?
A: TGI [1]: > 100 µM; TGI [2]: > 100 µM; TGI [3]: > 100 µM; TGI [4]: > 100 µM; TGI [5]: > 100 µM; TGI [6]: > 100 µM; TGI [7]: > 100 µM; TGI [8]: > 100 µM; TGI [9]: > 100 µM; TGI [10]: > 100 µM; TGI [11]: > 100 µM; TGI [12]: > 100 µM; TGI [13]: > 100 µM; TGI [14]: > 100 µM; TGI [15]: > 100 µM; TGI [16]: > 100 µM; TGI [17]: > 100 µM; TGI [18]: > 100 µM; TGI [19]: > 100 µM; TGI [20]: > 100 µM; TGI [21]: > 100 µM; TGI [22]: > 100 µM; TGI [23]: > 100 µM; TGI [24]: > 100 µM; TGI [25]: > 100 µM; TGI [26]: > 100 µM; TGI [27]: > 100 µM; TGI [28]: > 100 µM; TGI [29]: > 100 µM; TGI [30]: > 100 µM; TGI [31]: > 100 µM; TGI [32]: > 100 µM; TGI [33]: > 100 µM; TGI [34]: > 100 µM; TGI [35]: > 100 µM; TGI [36]: > 100 µM; TGI [37]: > 100 µM; TGI [38]: > 100 µM; TGI [39]: > 100 µM; TGI [40]: > 100 µM; TGI [41]: > 100 µM; TGI [42]: > 100 µM; TGI [43]: > 100 µM; TGI [44]: > 100 µM; TGI [45]: > 100 µM; TGI [46]: > 100 µM; TGI [47]: > 100 µM; TGI [48]: > 100 µM; TGI [49]: > 100 µM; TGI [50]: > 100 µM; TGI [51]: > 100 µM; TGI [52]: > 100 µM; TGI [53]: > 100 µM; TGI [54]: > 100 µM

Q: Which results are given for `CCC1(CC)C(=O)NN(C(=O)c2ccc(Cl)cc2)C1=O`?
A: TGI [55]: > 100 µM; TGI [1]: > 100 µM; TGI [2]: > 100 µM; TGI [3]: > 100 µM; TGI [4]: > 100 µM; TGI [5]: > 100 µM; TGI [6]: > 100 µM; TGI [7]: > 100 µM; TGI [8]: > 100 µM; TGI [9]: > 100 µM; TGI [10]: > 100 µM; TGI [11]: > 100 µM; TGI [12]: > 100 µM; TGI [13]: > 100 µM; TGI [14]: > 100 µM; TGI [15]: > 100 µM; TGI [16]: > 100 µM; TGI [17]: > 100 µM; TGI [18]: > 100 µM; TGI [19]: > 100 µM; TGI [20]: > 100 µM; TGI [21]: 18.1 µM; TGI [22]: > 100 µM; TGI [23]: > 100 µM; TGI [24]: > 100 µM; TGI [25]: > 100 µM; TGI [26]: > 100 µM; TGI [27]: > 100 µM; TGI [28]: > 100 µM; TGI [56]: > 100 µM; TGI [29]: > 100 µM; TGI [30]: > 100 µM; TGI [31]: > 100 µM; TGI [32]: > 100 µM; TGI [33]: > 100 µM; TGI [34]: > 100 µM; TGI [57]: > 100 µM; TGI [36]: > 100 µM; TGI [37]: > 100 µM; TGI [38]: > 100 µM; TGI [39]: > 100 µM; TGI [40]: > 100 µM; TGI [41]: > 100 µM; TGI [42]: > 100 µM; TGI [43]: > 100 µM; TGI [44]: > 100 µM; TGI [45]: > 100 µM; TGI [46]: > 100 µM; TGI [47]: > 100 µM; TGI [48]: > 100 µM; TGI [49]: > 100 µM; TGI [50]: > 100 µM; TGI [51]: > 100 µM; TGI [52]: > 100 µM; TGI [53]: > 100 µM; TGI [54]: > 100 µM

Q: What does the source list for `N#Cc1nc(-c2ccc(-c3nc(C#N)c(N)o3)cc2)oc1N`?
A: TGI [55]: > 10 µM; TGI [1]: > 10 µM; TGI [3]: > 10 µM; TGI [4]: > 10 µM; TGI [5]: > 10 µM; TGI [6]: > 10 µM; TGI [7]: > 10 µM; TGI [8]: > 10 µM; TGI [9]: > 10 µM; TGI [10]: > 10 µM; TGI [11]: > 10 µM; TGI [12]: > 10 µM; TGI [13]: > 10 µM; TGI [14]: > 10 µM; TGI [15]: > 10 µM; TGI [16]: > 10 µM; TGI [17]: > 10 µM; TGI [18]: > 10 µM; TGI [19]: > 10 µM; TGI [20]: > 10 µM; TGI [21]: > 10 µM; TGI [23]: > 10 µM; TGI [24]: > 10 µM; TGI [27]: > 10 µM; TGI [28]: > 10 µM; TGI [56]: > 10 µM; TGI [29]: > 10 µM; TGI [30]: > 10 µM; TGI [31]: > 10 µM; TGI [32]: > 10 µM; TGI [33]: > 10 µM; TGI [34]: > 10 µM; TGI [35]: > 10 µM; TGI [57]: > 10 µM; TGI [36]: > 10 µM; TGI [37]: > 10 µM; TGI [38]: > 10 µM; TGI [39]: > 10 µM; TGI [58]: > 10 µM; TGI [40]: > 10 µM; TGI [41]: > 10 µM; TGI [42]: > 10 µM; TGI [43]: > 10 µM; TGI [44]: > 10 µM; TGI [45]: > 10 µM; TGI [46]: > 10 µM; TGI [47]: > 10 µM; TGI [48]: > 10 µM; TGI [49]: > 10 µM; TGI [50]: > 10 µM; TGI [51]: > 10 µM; TGI [52]: > 10 µM; TGI [53]: > 10 µM; TGI [54]: > 10 µM

Q: `COC1=CC(=O)c2c(n[nH]c2CCNC(=O)OCc2ccccc2)C1=O` was tested. Which TGI [55] did it give?
A: 31.3 µM

Q: What about the TGI [1] of the same compound?
A: 24.5 µM

Q: And the TGI [2]?
A: 26 µM

Q: And the TGI [3]?
A: 33.9 µM

Q: And the TGI [4]?
A: 44.9 µM

Q: And the TGI [7]?
A: 15.5 µM

Q: And the TGI [8]?
A: 27.2 µM

Q: And the TGI [9]?
A: 4 µM

Q: What about the TGI [59] of the same compound?
A: 32.7 µM

Q: And the TGI [10]?
A: 39.8 µM

Q: And the TGI [11]?
A: 70.6 µM

Q: And the TGI [12]?
A: 22.2 µM

Q: What about the TGI [13] of the same compound?
A: 26.7 µM

Q: And the TGI [14]?
A: 30.8 µM

Q: What about the TGI [16] of the same compound?
A: 31.3 µM

Q: And the TGI [17]?
A: 18.3 µM

Q: And the TGI [18]?
A: 51.4 µM

Q: What about the TGI [19] of the same compound?
A: 13 µM

Q: And the TGI [20]?
A: 65.5 µM

Q: What about the TGI [21] of the same compound?
A: 6.5 µM

Q: And the TGI [22]?
A: 32.2 µM

Q: And the TGI [24]?
A: 40.8 µM

Q: What about the TGI [25] of the same compound?
A: 23.7 µM

Q: What about the TGI [26] of the same compound?
A: 32.1 µM

Q: And the TGI [27]?
A: 30.1 µM

Q: What about the TGI [28] of the same compound?
A: 4.61 µM

Q: What about the TGI [30] of the same compound?
A: 32 µM

Q: And the TGI [31]?
A: 22.9 µM

Q: What about the TGI [32] of the same compound?
A: 44.3 µM

Q: And the TGI [33]?
A: 29 µM

Q: And the TGI [34]?
A: 32.5 µM

Q: And the TGI [57]?
A: 39.6 µM

Q: What about the TGI [36] of the same compound?
A: > 100 µM

Q: What about the TGI [37] of the same compound?
A: 31.3 µM

Q: And the TGI [38]?
A: 40.4 µM

Q: What about the TGI [39] of the same compound?
A: 19.9 µM

Q: And the TGI [58]?
A: 34.1 µM

Q: What about the TGI [40] of the same compound?
A: 39.1 µM

Q: And the TGI [43]?
A: 21.1 µM

Q: And the TGI [44]?
A: 28.8 µM

Q: What about the TGI [45] of the same compound?
A: 23.7 µM

Q: And the TGI [47]?
A: 37.2 µM

Q: And the TGI [48]?
A: 34.9 µM

Q: What about the TGI [49] of the same compound?
A: 41.9 µM

Q: What about the TGI [50] of the same compound?
A: > 100 µM

Q: What about the TGI [51] of the same compound?
A: 36.8 µM

Q: And the TGI [52]?
A: 69.1 µM

Q: What about the TGI [53] of the same compound?
A: 28.3 µM

Q: What about the TGI [54] of the same compound?
A: 24.9 µM
